In patent US12371428B2 (Exelixis, Inc., priority 2019, dated 2025) one finds IC50 data, which are given here for 24 molecules.

Where a name gives a salt, the structure may show the parent alone.

The target of test [1] is KDR (phospho-KDR, VEGF165-stimulated HUVEC cells) (Homo sapiens (Human), UniProt P35968). Nature of the test: KDR autophosphorylation ELISA in HUVEC cells (Example G). To be noted: cellular activity; KDR autophosphorylation ELISA in HUVEC cells. In kind it is cell-based. In outline:
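Inhibition of VEGF165-driven KDR autophosphorylation is measured in primary human umbilical vein endothelial cells after 24 h serum deprivation. Compound preincubation lasts 1 h before a 5-minute challenge with 100 ng/mL ligand, and phosphorylated receptor is then measured by ELISA in the lysates.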

Test [2] addresses Met (phospho-Met, HGF-stimulated PC-3 prostate cancer cells) (Homo sapiens (Human), UniProt P08581). Put plainly: Met autophosphorylation ELISA in PC-3 cells (Example F). In kind it is cell-based. Particulars: cellular activity; Met autophosphorylation ELISA in PC-3 cells; read-out: c-Met IC50. In outline:
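PC-3 cells, serum-starved 3 h, were treated with compounds (8-point dose curve, 0.3% DMSO final) for 1 h, then stimulated with 100 ng/mL recombinant human HGF for 10 min. Lysate phospho-Met (panTyr) was quantified by sandwich ELISA; IC50 from 4-parameter logistic fit.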

Sequence of KDR (phospho-KDR, VEGF165-stimulated HUVEC cells) (P35968 20-1356): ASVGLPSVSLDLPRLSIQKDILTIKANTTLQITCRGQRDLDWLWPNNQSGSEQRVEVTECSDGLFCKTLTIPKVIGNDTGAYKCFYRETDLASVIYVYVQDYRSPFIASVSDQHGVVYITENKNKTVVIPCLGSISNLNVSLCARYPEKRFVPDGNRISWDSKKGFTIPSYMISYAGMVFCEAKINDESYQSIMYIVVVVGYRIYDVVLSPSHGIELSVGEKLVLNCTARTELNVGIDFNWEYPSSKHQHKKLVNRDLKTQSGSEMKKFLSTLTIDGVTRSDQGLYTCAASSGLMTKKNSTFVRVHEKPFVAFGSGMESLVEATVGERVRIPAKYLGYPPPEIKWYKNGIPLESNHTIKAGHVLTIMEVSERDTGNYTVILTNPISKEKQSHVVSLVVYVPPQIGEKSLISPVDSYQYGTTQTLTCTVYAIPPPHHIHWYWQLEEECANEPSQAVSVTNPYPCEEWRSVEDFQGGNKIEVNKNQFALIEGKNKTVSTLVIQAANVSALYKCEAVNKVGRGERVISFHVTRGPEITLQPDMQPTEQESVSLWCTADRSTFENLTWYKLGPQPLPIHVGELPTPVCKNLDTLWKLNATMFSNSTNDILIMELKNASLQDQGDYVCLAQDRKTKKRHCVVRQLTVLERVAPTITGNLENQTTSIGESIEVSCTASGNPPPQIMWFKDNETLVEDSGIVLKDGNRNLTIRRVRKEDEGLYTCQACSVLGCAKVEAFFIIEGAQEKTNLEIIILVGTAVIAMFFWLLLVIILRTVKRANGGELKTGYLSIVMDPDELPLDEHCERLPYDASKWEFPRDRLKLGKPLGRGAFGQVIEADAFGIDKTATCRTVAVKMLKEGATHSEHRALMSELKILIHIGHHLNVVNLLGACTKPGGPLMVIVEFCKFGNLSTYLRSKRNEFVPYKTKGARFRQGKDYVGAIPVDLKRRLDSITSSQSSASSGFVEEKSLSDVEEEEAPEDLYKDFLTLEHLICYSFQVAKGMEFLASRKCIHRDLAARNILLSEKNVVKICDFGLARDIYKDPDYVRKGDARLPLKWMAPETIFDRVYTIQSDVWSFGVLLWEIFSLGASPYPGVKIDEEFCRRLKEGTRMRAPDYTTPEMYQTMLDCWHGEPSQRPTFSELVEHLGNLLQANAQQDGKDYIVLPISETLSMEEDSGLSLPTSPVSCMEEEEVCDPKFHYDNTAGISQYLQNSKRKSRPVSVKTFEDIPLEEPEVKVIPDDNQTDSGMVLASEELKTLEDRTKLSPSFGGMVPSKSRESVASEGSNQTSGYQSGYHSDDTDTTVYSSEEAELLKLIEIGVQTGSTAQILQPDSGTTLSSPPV
Sequence of Met (phospho-Met, HGF-stimulated PC-3 prostate cancer cells) (P08581 25-1390): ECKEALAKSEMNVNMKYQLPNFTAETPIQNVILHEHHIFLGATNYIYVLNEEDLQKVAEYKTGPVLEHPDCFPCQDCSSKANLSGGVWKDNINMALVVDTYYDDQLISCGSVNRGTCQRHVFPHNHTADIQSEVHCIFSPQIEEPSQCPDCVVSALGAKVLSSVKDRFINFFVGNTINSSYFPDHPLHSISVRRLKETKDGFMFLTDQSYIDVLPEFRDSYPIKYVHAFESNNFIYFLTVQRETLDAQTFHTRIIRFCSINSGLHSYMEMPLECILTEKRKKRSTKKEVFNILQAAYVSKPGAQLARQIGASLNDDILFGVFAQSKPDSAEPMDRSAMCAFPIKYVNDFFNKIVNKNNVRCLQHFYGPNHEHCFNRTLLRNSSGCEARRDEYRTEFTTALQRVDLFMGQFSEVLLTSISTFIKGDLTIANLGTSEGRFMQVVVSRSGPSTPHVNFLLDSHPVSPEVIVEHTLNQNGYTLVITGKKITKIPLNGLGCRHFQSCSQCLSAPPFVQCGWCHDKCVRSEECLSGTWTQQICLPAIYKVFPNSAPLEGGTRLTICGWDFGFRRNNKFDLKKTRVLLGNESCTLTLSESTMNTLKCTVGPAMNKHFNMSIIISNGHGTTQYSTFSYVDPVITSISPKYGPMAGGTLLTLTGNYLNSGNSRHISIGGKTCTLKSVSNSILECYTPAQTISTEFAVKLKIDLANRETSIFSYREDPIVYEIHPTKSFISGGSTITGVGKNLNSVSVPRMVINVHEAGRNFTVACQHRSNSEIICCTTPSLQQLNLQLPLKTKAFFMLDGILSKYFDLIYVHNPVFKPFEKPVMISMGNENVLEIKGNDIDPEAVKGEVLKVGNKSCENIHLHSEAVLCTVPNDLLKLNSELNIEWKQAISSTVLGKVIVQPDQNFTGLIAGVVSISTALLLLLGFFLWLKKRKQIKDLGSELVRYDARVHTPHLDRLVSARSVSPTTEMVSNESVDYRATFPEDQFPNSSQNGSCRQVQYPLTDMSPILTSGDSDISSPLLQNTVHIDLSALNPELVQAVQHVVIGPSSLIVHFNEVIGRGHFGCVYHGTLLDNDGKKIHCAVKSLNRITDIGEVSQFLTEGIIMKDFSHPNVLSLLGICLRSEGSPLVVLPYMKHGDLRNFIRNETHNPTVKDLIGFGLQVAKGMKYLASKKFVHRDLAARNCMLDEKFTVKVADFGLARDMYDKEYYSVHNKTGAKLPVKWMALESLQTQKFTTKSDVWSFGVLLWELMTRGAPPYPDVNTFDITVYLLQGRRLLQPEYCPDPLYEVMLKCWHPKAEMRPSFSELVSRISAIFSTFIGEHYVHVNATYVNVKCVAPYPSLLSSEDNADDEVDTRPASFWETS

Take `CCn1cc(C(=O)Nc2ccc(Oc3ccnc4cc(OC)c(OC)nc34)cc2)c(=O)c(-c2ccc(F)cc2)c1C` [Compound 168, N-[4-[(6,7-Dimethoxy-1,5-naphthyridin-4-yl)oxy]phenyl]-1-ethyl-5-(4-fluorophenyl)-6-methyl-4-oxopyridine-3-carboxamide]: the IC50 was 100 to 300 nM in test [1] and less than 100 nM in test [2].
Take `COc1cnc2c(Oc3ccc(NC(=O)c4cncc(-c5ccc(F)cc5)c4O)cc3F)ccnc2c1` [Compound 120, N-[3-Fluoro-4-[(7-methoxy-1,5-naphthyridin-4-yl)oxy]phenyl]-5-(4-fluorophenyl)-4-hydroxypyridine-3-carboxamide]: the IC50 in test [1] and in test [2] was less than 100 nM in each case.
For `Cc1ncc(C(=O)Nc2ccc(Oc3ccnc4cc(-c5cnn(C(F)F)c5)cnc34)c(F)c2)c(O)c1-c1ccc(F)cc1` [Compound 610, N-[4-[[7-[1-(Difluoromethyl)pyrazol-4-yl]-1,5-naphthyridin-4-yl]oxy]-3-fluorophenyl]-5-(4-fluorophenyl)-4-hydroxy-6-methylpyridine-3-carboxamide hydrochloride], the IC50 in test [1] and in test [2] was less than 100 nM in each case.
Regarding `COc1cc2nccc(Oc3ccc(NC(=O)c4cn(CCO)c(C)c(-c5ccc(F)cc5)c4=O)cc3F)c2nc1OC` [Compound 619, N-[4-[(6,7-Dimethoxy-1,5-naphthyridin-4-yl)oxy]-3-fluorophenyl]-5-(4-fluorophenyl)-1-(2-hydroxyethyl)-6-methyl-4-oxopyridine-3-carboxamide], the IC50 in test [1] and in test [2] was less than 100 nM in each case.
Consider `Cc1nc(C)c(-c2ccc(F)cc2)c(O)c1C(=O)Nc1ccc(Oc2ccnc3cc(C(C)C)cnc23)c(F)c1` [Compound 595, 5-(4-Fluorophenyl)-N-[3-fluoro-4-[(7-propan-2-yl-1,5-naphthyridin-4-yl)oxy]phenyl]-4-hydroxy-2,6-dimethylpyridine-3-carboxamide], for which the IC50 in test [1] and in test [2] was less than 100 nM each time.
On to `CNc1nc2c(Oc3ccc(NC(=O)c4cn(C(C)C)c(C)c(-c5ccc(F)cc5)c4=O)cc3F)ccnc2cc1OC` [Compound 582, N-[3-Fluoro-4-[[7-methoxy-6-(methylamino)-1,5-naphthyridin-4-yl]oxy]phenyl]-5-(4-fluorophenyl)-6-methyl-4-oxo-1-propan-2-ylpyridine-3-carboxamide], for which the IC50 is 100 to 300 nM in test [1] and less than 100 nM in test [2].
On the same counts, the results for `COc1cnc2c(Oc3ccc(NC(=O)c4cn(C)c(C)c(-c5ccc(F)cc5)c4=O)cc3F)ccnc2c1` [Compound 156, N-[3-Fluoro-4-[(7-methoxy-1,5-naphthyridin-4-yl)oxy]phenyl]-5-(4-fluorophenyl)-1,6-dimethyl-4-oxopyridine-3-carboxamide] are greater than 300 nM and less than 100 nM.
Take `COc1cc2nccc(Oc3ccc(NC(=O)c4cn(OC)cc(-c5ccc(F)cc5)c4=O)cc3)c2nc1OC` [Compound 127, N-[4-[(6,7-Dimethoxy-1,5-naphthyridin-4-yl)oxy]phenyl]-5-(4-fluorophenyl)-1-methoxy-4-oxopyridine-3-carboxamide]: the IC50 in test [1] and in test [2] was less than 100 nM throughout.
Turning to `COc1ccc2nccc(Oc3ccc(NC(=O)c4cnc(C)c(-c5ccc(F)cc5)c4O)cc3F)c2n1` [Compound 172, N-[3-Fluoro-4-[(6-methoxy-1,5-naphthyridin-4-yl)oxy]phenyl]-5-(4-fluorophenyl)-4-hydroxy-6-methylpyridine-3-carboxamide], the IC50 in test [1] and in test [2] was less than 100 nM each time.
For the molecule `Cc1nc2c(Oc3ccc(NC(=O)c4cn(C(C)C)c(C)c(-c5ccc(F)cc5)c4=O)cc3F)ccnc2cc1Br` [Compound 153, N-[4-[(7-Bromo-6-methyl-1,5-naphthyridin-4-yl)oxy]-3-fluorophenyl]-5-(4-fluorophenyl)-6-methyl-4-oxo-1-propan-2-ylpyridine-3-carboxamide], the IC50 was greater than 300 nM in test [1] and less than 100 nM in test [2].
The matching figures for `CCc1nc2c(Oc3ccc(NC(=O)c4cnc(C)c(-c5ccc(F)cc5)c4O)cc3F)ccnc2cc1OC` [Compound 589, N-[4-[(6-Ethyl-7-methoxy-1,5-naphthyridin-4-yl)oxy]-3-fluorophenyl]-5-(4-fluorophenyl)-4-hydroxy-6-methylpyridine-3-carboxamide]: less than 100 nM and less than 100 nM.
`COc1cc2nccc(Oc3ccc(NC(=O)c4cn(C(C)C)c(C)c(-c5ccc(F)cc5)c4=O)cc3F)c2nc1Br` [Compound 143, N-[4-[(6-Bromo-7-methoxy-1,5-naphthyridin-4-yl)oxy]-3-fluorophenyl]-5-(4-fluorophenyl)-6-methyl-4-oxo-1-propan-2-ylpyridine-3-carboxamide]: the IC50 in test [1] was 100 to 300 nM; in test [2], less than 100 nM.
Take `CCn1cc(C(=O)Nc2ccc(Oc3ccnc4cc(OC)cnc34)cc2)c(=O)c(-c2ccc(F)cc2)c1C` [Compound 163, 1-Ethyl-5-(4-fluorophenyl)-N-[4-[(7-methoxy-1,5-naphthyridin-4-yl)oxy]phenyl]-6-methyl-4-oxopyridine-3-carboxamide]: the IC50 in test [1] is greater than 300 nM; in test [2], less than 100 nM.
The matching figures for `COc1cc2nccc(Oc3ccc(NC(=O)c4cnc(C)c(-c5ccc(F)cc5)c4O)cc3)c2cc1OC` [Compound 171, N-[4-(6,7-Dimethoxyquinolin-4-yl)oxyphenyl]-5-(4-fluorophenyl)-4-hydroxy-6-methylpyridine-3-carboxamide]: less than 100 nM and less than 100 nM.
The matching figures for `COc1cc2nccc(Oc3ccc(NC(=O)c4cn(C(C)C)cc(-c5ccc(F)cc5)c4=O)cc3)c2nc1OC` [Compound 122, N-[4-[(6,7-Dimethoxy-1,5-naphthyridin-4-yl)oxy]phenyl]-5-(4-fluorophenyl)-4-oxo-1-propan-2-ylpyridine-3-carboxamide]: 100 to 300 nM and less than 100 nM.
For `COc1cc2c(Oc3ccc(NC(=O)c4cnc(C)c(-c5ccc(F)cc5)c4O)cc3F)ccnc2cn1` [Compound 639, N-[3-fluoro-4-[(6-methoxy-1,7-naphthyridin-4-yl)oxy]phenyl]-5-(4-fluorophenyl)-4-hydroxy-6-methylpyridine-3-carboxamide], the IC50 in test [1] and in test [2] was less than 100 nM in each case.
For `COc1cc2nccc(Oc3ccc(NC(=O)c4cnc(C)c(-c5ccc(F)cc5C)c4O)cc3)c2nc1OC` [Compound 174, N-[4-[(6,7-Dimethoxy-1,5-naphthyridin-4-yl)oxy]phenyl]-5-(4-fluoro-2-methylphenyl)-4-hydroxy-6-methylpyridine-3-carboxamide], the IC50 in test [1] and in test [2] was less than 100 nM each time.
`Cc1nc2c(Oc3ccc(NC(=O)c4cn(C(C)C)c(C)c(-c5ccc(F)cc5)c4=O)cc3F)ccnc2cc1-c1cnn(C(F)F)c1` [Compound 614, N-[4-[[7-[1-(Difluoromethyl)pyrazol-4-yl]-6-methyl-1,5-naphthyridin-4-yl]oxy]-3-fluorophenyl]-5-(4-fluorophenyl)-6-methyl-4-oxo-1-propan-2-ylpyridine-3-carboxamide hydrochloride]: the IC50 in test [1] was greater than 300 nM; in test [2], 100 to 300 nM.
Take `COc1cc2nccc(Oc3ccc(NC(=O)c4cnc(C)c(-c5ccc(F)cc5)c4O)cc3)c2nc1OC` [Compound 119, N-[4-[(6,7-Dimethoxy-1,5-naphthyridin-4-yl)oxy]phenyl]-5-(4-fluorophenyl)-4-hydroxy-6-methylpyridine-3-carboxamide]: the IC50 in test [1] and in test [2] was less than 100 nM each time.
With `Cc1cc(F)ccc1-c1c(C)ncc(C(=O)Nc2ccc(Oc3ccnc4cc(C(C)C)cnc34)c(F)c2)c1O` [Compound 593, 5-(4-Fluoro-2-methylphenyl)-N-[3-fluoro-4-[(7-propan-2-yl-1,5-naphthyridin-4-yl)oxy]phenyl]-4-hydroxy-6-methylpyridine-3-carboxamide], the IC50 in test [1] and in test [2] was less than 100 nM throughout.
For the molecule `COc1cc2nccc(Oc3ccc(NC(=O)c4cnc(C)c(-c5ccc(F)cc5)c4O)cc3F)c2nc1Br` [Compound 142, N-[4-[(6-Bromo-7-methoxy-1,5-naphthyridin-4-yl)oxy]-3-fluorophenyl]-5-(4-fluorophenyl)-4-hydroxy-6-methylpyridine-3-carboxamide], the IC50 in test [1] and in test [2] was less than 100 nM throughout.
For `COc1cnc2c(Oc3ccc(NC(=O)c4cn(C(C)C)c(C)c(-c5ccc(F)cc5)c4=O)cc3)ccnc2c1` [Compound 148, 5-(4-Fluorophenyl)-N-[4-[(7-methoxy-1,5-naphthyridin-4-yl)oxy]phenyl]-6-methyl-4-oxo-1-propan-2-ylpyridine-3-carboxamide], the results for the IC50 in test [1] and in test [2] were greater than 300 nM and less than 100 nM, respectively.
Consider `Cc1nc2c(Oc3ccc(NC(=O)c4cn(C(C)C)c(C)c(-c5ccc(F)cc5)c4=O)cc3F)ccnc2cc1-c1cccnc1` [Compound 620, N-[3-Fluoro-4-[(6-methyl-7-pyridin-3-yl-1,5-naphthyridin-4-yl)oxy]phenyl]-5-(4-fluorophenyl)-6-methyl-4-oxo-1-propan-2-ylpyridine-3-carboxamide], for which the results for the IC50 in test [1] and in test [2] were greater than 300 nM and 100 to 300 nM, respectively.
The matching figures for `COc1nc2c(Oc3ccc(NC(=O)c4cn(C(C)C)c(C)c(-c5ccc(F)cc5)c4=O)cc3F)ccnc2cc1Br` [Compound 132, N-[4-[(7-Bromo-6-methoxy-1,5-naphthyridin-4-yl)oxy]-3-fluorophenyl]-5-(4-fluorophenyl)-6-methyl-4-oxo-1-propan-2-ylpyridine-3-carboxamide]: 100 to 300 nM and 100 to 300 nM.
